In the Biogen ADME set (Fang et al. 2023):
In brackets after ≈: the same amount, converted by molar mass.

Conditions: for aqueous solubility: pH 6.8

Structure (SMILES) | intrinsic clearance, human liver microsomes | intrinsic clearance, rat liver microsomes | aqueous solubility | MDR1-MDCK efflux ratio | fraction unbound, human plasma | fraction unbound, rat plasma
CN(Cc1ccc(-c2ccc(Br)cc2)o1)C(=O)c1cnn(C)c1 | 10.5 mL/min/kg | 134 mL/min/kg | 5.53 µg/mL (≈ 14.8 µM) |  |  | 
Cc1nn(C)c(C)c1NC(=O)CN1CCN(c2nccs2)CC1 | ≤ 4.74 mL/min/kg | 14.3 mL/min/kg | 58.2 µg/mL (≈ 174 µM) | 18.9 |  | 
CCS(=O)(=O)CC(=O)Nc1cc(C)ccc1C | ≤ 4.74 mL/min/kg | ≤ 10.7 mL/min/kg | 40.4 µg/mL (≈ 158 µM) |  |  | 
CCn1ncnc1-c1[nH]cnc1-c1ccccc1 | ≤ 4.74 mL/min/kg | 48 mL/min/kg | 23 µg/mL (≈ 96.2 µM) | 2.19 |  | 
c1ccc(Cc2cccc3cc4c(nc23)OCCNC4)cc1 | 24.5 mL/min/kg | 1120 mL/min/kg | 47.8 µg/mL (≈ 165 µM) |  |  | 
Cc1ccc(-c2ccc(=O)n(Cc3ccncc3)n2)cc1 | 41.7 mL/min/kg | 2400 mL/min/kg | 42.6 µg/mL (≈ 154 µM) | 0.617 |  | 
CNC(=O)Cc1csc(-c2ccc(C)cc2)n1 | 108 mL/min/kg | 1010 mL/min/kg | 4.06 µg/mL (≈ 16.5 µM) | 0.708 |  | 
N#Cc1cccc(NCc2ccc(-c3cccnc3)o2)c1 | 91.5 mL/min/kg | 416 mL/min/kg |  |  |  | 
O=C(Nc1ccccc1-n1ccnc1)c1ccc(F)cc1 | 10.2 mL/min/kg | 40.3 mL/min/kg | 60.8 µg/mL (≈ 216 µM) | 0.961 |  | 
CN1CCC(CNc2ccc3ncc(-c4cccc(OC(F)(F)F)c4)n3n2)CC1 | 90.9 mL/min/kg | 365 mL/min/kg |  |  |  | 
CN(C)C(=O)c1ccc(NC(=O)c2cccc(F)c2)cc1 | 9.98 mL/min/kg | 69.2 mL/min/kg | 46.5 µg/mL (≈ 162 µM) | 0.927 |  | 
Cc1noc2ncc(C(=O)Nc3nc(C4CC4)cs3)cc12 | 89.9 mL/min/kg | 377 mL/min/kg | 11.5 µg/mL (≈ 38.3 µM) | 0.511 |  | 
Cc1cccc(NC(=O)c2ccccc2-c2ccccc2)n1 | 64.2 mL/min/kg | 686 mL/min/kg | 33.1 µg/mL (≈ 115 µM) | 0.551 |  | 
O=C(NCc1nnc2c(O)nccn12)C1CCCC1 | ≤ 4.74 mL/min/kg | ≤ 10.7 mL/min/kg | 41.8 µg/mL (≈ 160 µM) | 1.22 |  | 
O=C(NO)c1cnc(NC2(c3ccccc3)CC2)nc1 | ≤ 4.74 mL/min/kg | 17.4 mL/min/kg |  |  |  | 
Cc1cc(Cn2cnc(C#N)c2C#N)c2ccccc2n1 | ≤ 4.74 mL/min/kg | 36.7 mL/min/kg |  | 2.84 |  | 
CC1=CCN(C(=O)c2cc(C)nc3cc(C)cc(C)c23)CC1 | 97.7 mL/min/kg | 2140 mL/min/kg |  | 1.03 |  | 
CNC(=O)C1(Cc2ccc(-c3cccnc3)cc2)CCN(Cc2cccc(F)c2)C1 (stereo not given) | 280 mL/min/kg | 982 mL/min/kg |  | 1.32 | 0.0676 | 0.034
CC(C)c1noc(-c2ccc(N)cc2)n1 | 47.1 mL/min/kg | 158 mL/min/kg |  |  |  | 
O=C(NCc1cccs1)c1cccnc1 | ≤ 4.74 mL/min/kg | ≤ 10.7 mL/min/kg |  | 0.62 |  | 
CC1CCN(CC(=O)Nc2nc(-c3c[nH]c4ccccc34)cs2)CC1 | 37.9 mL/min/kg | 315 mL/min/kg | 5.19 µg/mL (≈ 14.6 µM) | 0.826 |  | 
CN1CCN(C(=O)C2(NC(=O)c3ccc(C(F)(F)F)cc3)CCCC2)CC1 | ≤ 4.74 mL/min/kg | ≤ 10.7 mL/min/kg | 76.1 µg/mL (≈ 199 µM) | 86 |  | 
COc1cn(-c2ccc(-n3cccn3)cc2F)nc(-c2ccnn2-c2ccccc2)c1=O | ≤ 4.74 mL/min/kg | 28.2 mL/min/kg |  | 10.9 |  | 
Cc1cccn(Cc2ccccc2F)c1=O | ≤ 4.74 mL/min/kg | 60.7 mL/min/kg | 28.2 µg/mL (≈ 130 µM) | 0.634 |  | 
COc1cc2nc(CN3CCC(CO)CC3)[nH]c(=O)c2cc1OC | ≤ 4.74 mL/min/kg | ≤ 10.7 mL/min/kg |  | 29 |  | 
COc1ccc(-c2cccc(C3CCCN(CC(=O)Nc4ccccn4)C3)n2)cc1 (stereo not given) | 131 mL/min/kg | 2220 mL/min/kg | 8.1 µg/mL (≈ 20.1 µM) | 0.833 |  | 
O=C1NCN(c2ccccc2)C12CCN(CCCOc1ccc(F)cc1)CC2 | 74.3 mL/min/kg | 548 mL/min/kg | 50.9 µg/mL (≈ 133 µM) |  |  | 
Cc1cccc(C)c1OCC(=O)N(C)[C@@H]1CCC[C@@H](O)[C@@H]1O | 9.69 mL/min/kg | 155 mL/min/kg |  | 11.2 |  | 
